Legend:
[1] = target: SOS1 (Homo sapiens (Human), UniProt Q07889); assay: Ras-SOS interaction assay (HTRF), K-Ras G13D utilized; format: binding; conditions: K-Ras G13D, read-out: SOS1 IC50
Text: For example, the equilibrium interaction of human SOS1 (hSOS1) with human wildtype Kras or K-Ras mutant (e.g., hK-Ras G12C mutant, or hK-Ras G12C) can be assessed as a proxy or an indication for a subject compound's ability to inhibit SOS. Detection of such interaction is achieved by measuring homogenous time-resolved fluorescence resonance energy transfer (HTRF) from (i) a fluorescence resonance energy transfer (FRET) donor (e.g., antiGST-Europium) that is bound to GST-tagged K-Ras G12C to (ii) a FRET acceptor (e.g., anti-6His-XL665) bound to a His-tagged hSOS1.
A Ras working solution is prepared in assay buffer containing typically 10 nM of the protein construct (e.g., GST-tagged hK-Ras G12C) and 2 nM of the FRET donor (e.g., antiGST-Eu(K) from Cisbio, France). A SOS1 working solution is prepared in assay buffer containing typically 10 nM of the protein construct (e.g., His-hSOS1) and 10 nM of the FRET acceptor (e.g., anti-6His-XL665 from Cisbio, France). An inhibitor control solution is prepared in assay buffer containing 10 nM of the FRET acceptor without the SOS1 protein.
A fixed reaction mixture with or without test compound is transferred into a 384-well plate. Ras working solution is added to all wells of the test plate. SOS1 working solution is added to all wells except for those that are subsequently filled with the inhibitor control solution. […] The ratiometric data (i.e., emission 2 divided by emission 1) is used to calculate IC50 values against SOS1 using GraphPad Prism (GraphPad software).

[2] = tested on: NCI-H1975 (ATCC CRL-5908) cell line comprising an EGFR T790M L858R double mutation; assay: EGFR-SOS cellular inhibition assay (CellTiter-Glo cell proliferation); format: cell-based; conditions: Homo sapiens, 120 h; NCI-H1975 cell proliferation, approximately 5 days; read-out: H1975 IC50
Procedure: A CellTiter-Glo (CTG) luminescent based assay (Promega) is used to assess growth of the cells, as a measurement of the ability of the compounds herein to inhibit EGFR signaling in the cells. […] The day after plating, cells are treated with a dilution series (e.g., a 9 point 3-fold dilution series) of the compounds herein (e.g., approximately 125 μL final volume per well).

SOS1, sequence (Q07889 564-1049): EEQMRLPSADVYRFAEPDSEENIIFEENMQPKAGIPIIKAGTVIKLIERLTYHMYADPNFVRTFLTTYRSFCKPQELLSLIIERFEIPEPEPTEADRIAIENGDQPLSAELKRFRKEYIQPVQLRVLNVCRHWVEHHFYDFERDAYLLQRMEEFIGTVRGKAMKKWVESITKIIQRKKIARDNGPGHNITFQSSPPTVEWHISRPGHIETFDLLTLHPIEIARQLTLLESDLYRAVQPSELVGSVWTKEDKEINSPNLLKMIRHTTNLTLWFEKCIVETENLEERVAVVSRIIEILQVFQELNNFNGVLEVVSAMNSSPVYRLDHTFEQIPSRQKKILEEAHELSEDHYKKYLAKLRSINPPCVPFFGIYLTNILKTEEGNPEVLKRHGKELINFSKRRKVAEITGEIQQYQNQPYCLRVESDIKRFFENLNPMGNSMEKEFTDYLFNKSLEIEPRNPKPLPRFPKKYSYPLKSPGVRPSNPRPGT

SMILES	IC50 [1]	IC50 [2]
Cc1nc2c3cc(C4CCS(=O)(=O)CC4)c(=O)n(c3n1)CCCC/C=C\CC(C)(O)C(F)(F)c1cccc(c1)[C@@H](C)N2 (stereo partly drawn) [Compound 12, (3R,Z)-1^6-(1,1-dioxidotetrahydro-2H-thiopyran-4-yl)-5,5-difluoro-6-hydroxy-1^2,3,6-trimethyl-1^7,1^8-dihydro-2-aza-1(4,8)-pyrido[2,3-d]pyrimidina-4(1,3)-benzenacyclotridecaphan-8-en-1^7-one]	100 to 5000 nM	< 1000 nM
CC1CC/C=C\CCn2c(=O)c(C3(C#N)CC3)cc3c(ncnc32)N[C@H](C)c2cccc(c2)C(F)(F)C2CCN1CC2 (stereo partly drawn) [Compound 100, 1-((4R,Z)-2,2-difluoro-4,13-dimethyl-6^7-oxo-6^7,6^8-dihydro-5-aza-6(4,8)-pyrido[2,3-d]pyrimidina-1(4,1)-piperidina-3(1,3)-benzenacyclotridecaphan-9-en-6^6-yl)cyclopropane-1-carbonitrile]		< 1000 nM
COc1cc2nc(C)nc3c2cc1OCCOCCOCCOCCOCCNC(=O)CCNCc1ccccc1C1=CC=C(S1)C(C)N3 (centres unmarked) [Compound 136, 5^7-methoxy-5^2,3-dimethyl-6,9,12,15,18-pentaoxa-4,21,25-triaza-5(4,6)-quinazolina-2(2,5)-thiophena-1(1,2)-benzenacyclohexacosaphan-22-one]	100 to 5000 nM	
COc1cc2nc(C)nc3c2cc1OCCCCOCCOCCOCCNCc1ccccc1C1=CC=C(S1)C(C)N3 (centres unmarked) [Compound 150, 5^7-methoxy-5^2,3-dimethyl-6,11,14,17-tetraoxa-4,20-diaza-5(4,6)-quinazolina-2(2,5)-thiophena-1(1,2)-benzenacyclohenicosaphane]	100 to 5000 nM	
C[C@H]1Nc2ncnc3cc(c(N4CCS(=O)(=O)CC4)cc23)OCCCCOCCCN2CCC(CC2)C(F)(F)c2cccc1c2 [Compound 192, (R)-4-(2,2-difluoro-4-methyl-7,12-dioxa-5-aza-6(4,7)-quinazolina-1(4,1)-piperidina-3(1,3)-benzenacyclopentadecaphane-6^6-yl)thiomorpholine 1,1-dioxide]	< 100 nM	
C[C@H]1Nc2ncnc3c(cc(N4CCS(=O)(=O)CC4)cc23)OCCCCCCN2CCC(CC2)C(F)(F)c2cccc1c2 [Compound 193, (R)-4-(2,2-difluoro-4-methyl-7-oxa-5-aza-6(4,8)-quinazolina-1(4,1)-piperidina-3(1,3)-benzenacyclotridecaphane-6^6-yl)thiomorpholine 1,1-dioxide]	< 100 nM	
C[C@H]1Nc2ncnc3c2cc(C2CCS(=O)(=O)CC2)c(=O)n3CCCOCCCN2CCC(CC2)CC(F)(F)c2cccc1c2 [Compound 194, (3R)-1^6-(1,1-dioxidotetrahydro-2H-thiopyran-4-yl)-5,5-difluoro-3-methyl-1^7,1^8-dihydro-11-oxa-2-aza-1(4,8)-pyrido[2,3-d]pyrimidina-7(4,1)-piperidina-4(1,3)-benzenacyclotetradecaphan-1^7-one]	< 100 nM	
CC(C)N1CCN(c2cc3c4ncnc(c4c2)N[C@H](C)c2cccc(c2)C(F)(F)C2CCN(CCCCCCO3)CC2)CC1 [Compound 195, (R)-2,2-difluoro-6^6-(4-isopropylpiperazin-1-yl)-4-methyl-7-oxa-5-aza-6(4,8)-quinazolina-1(4,1)-piperidina-3(1,3)-benzenacyclotridecaphane]	< 100 nM	
Cc1nnc2c3cc(N4CCOCC4)cc(c13)OCCCCCCN1CCC(CC1)C(F)(F)c1cccc(c1)[C@@H](C)N2 [Compound 196, (R)-2,2-difluoro-6^4,4-dimethyl-6^7-morpholino-7-oxa-5-aza-6(1,5)-phthalazina-1(4,1)-piperidina-3(1,3)-benzenacyclotridecaphane]	< 100 nM	

Results, then the compound that gave them:

IC50 [1]	IC50 [2]	SMILES
100 to 5000 nM	1000 to 10000 nM	Cc1nc2c3cc(C4(C#N)CC4)c(=O)n(c3n1)CC/C=C\COCC(F)(F)c1cccc(c1F)[C@@H](C)N2 [Compound 3, 1-((3R,Z)-4^2,5,5-trifluoro-1^2,3-dimethyl-1^7-oxo-1^7,1^8-dihydro-7-oxa-2-aza-1(4,8)-pyrido[2,3-d]pyrimidina-4(1,3)-benzenacyclododecaphan-9-en-1^6-yl)cyclopropane-1-carbonitrile]
< 100 nM	< 1000 nM	C[C@H]1Nc2ncnc3c2cc(C2(C#N)CCS(=O)(=O)CC2)c(=O)n3CCCCCN2CCC(CC2)CCC(F)(F)c2cccc1c2 [Compound 8, 4-((3R)-5,5-difluoro-3-methyl-1^7-oxo-1^7,1^8-dihydro-2-aza-1(4,8)-pyrido[2,3-d]pyrimidina-8(4,1)-piperidina-4(1,3)-benzenacyclotridecaphane-1^6-yl)tetrahydro-2H-thiopyran-4-carbonitrile 1,1-dioxide]
< 100 nM	< 1000 nM	C[C@H]1Nc2ncnc3c2cc(C2(C#N)CC2)c(=O)n3CCCNC(=O)CCN2CCC(CC2)C(F)(F)c2cccc1c2F [Compound 11, 1-((4R)-3^2,2,2-trifluoro-4-methyl-6^7,11-dioxo-6^7,6^8-dihydro-5,10-diaza-6(4,8)-pyrido[2,3-d]pyrimidina-1(4,1)-piperidina-3(1,3)-benzenacyclotridecaphane-6^6-yl)cyclopropane-1-carbonitrile]
< 100 nM	< 1000 nM	C[C@H]1Nc2ncnc3c2cc(C2(C#N)CC2)c(=O)n3CCCCCCN2CCC(CC2)CC(F)(F)c2cccc1c2F [Compound 15, 1-((3R)-4^2,5,5-trifluoro-3-methyl-1^7-oxo-1^7,1^8-dihydro-2-aza-1(4,8)-pyrido[2,3-d]pyrimidina-7(4,1)-piperidina-4(1,3)-benzenacyclotridecaphane-1^6-yl)cyclopropane-1-carbonitrile]
< 100 nM	< 1000 nM	CC(C)N1CCN(c2cc3c4ncnc3n(c2=O)CCCCCCN2CCC(CC2)CC(F)(F)c2cccc(c2F)[C@@H](C)N4)CC1 [Compound 16, (3R)-4^2,5,5-trifluoro-1^6-(4-isopropylpiperazin-1-yl)-3-methyl-1^7,1^8-dihydro-2-aza-1(4,8)-pyrido[2,3-d]pyrimidina-7(4,1)-piperidina-4(1,3)-benzenacyclotridecaphan-1^7-one]
< 100 nM	< 1000 nM	C[C@H]1Nc2ncnc3c2cc(N2CCN(C4CCOCC4)CC2)c(=O)n3CCCCCCCN2CCC(CC2)C(F)(F)c2cccc1c2F [Compound 19, (4R)-3^2,2,2-trifluoro-4-methyl-6^6-(4-(tetrahydro-2H-pyran-4-yl)piperazin-1-yl)-6^7,68-dihydro-5-aza-6(4,8)-pyrido[2,3-d]pyrimidina-1(4,1)-piperidina-3(1,3)-benzenacyclotridecaphan-6^7-one]
< 100 nM	< 1000 nM	CC1CCCCCn2c(=O)c(C3(C#N)CC3)cc3c(ncnc32)N[C@H](C)c2cccc(c2F)C(F)(F)C2CCN(CC2)C1 (stereo partly drawn) [Compound 20, 1-((4R)-3^2,2,2-trifluoro-4,12-dimethyl-6^7-oxo-6^7,6^8-dihydro-5-aza-6(4,8)-pyrido[2,3-d]pyrimidina-1(4,1)-piperidina-3(1,3)-benzenacyclotridecaphane-6^6-yl)cyclopropane-1-carbonitrile]
< 100 nM	< 1000 nM	CC(C)N1CCN(c2cc3c4ncnc3n(c2=O)CCCCCCCN2CCC(CC2)C(F)(F)c2cccc(c2F)[C@@H](C)N4)CC1 [Compound 21, (4R)-3^2,2,2-trifluoro-6^6-(4-isopropylpiperazin-1-yl)-4-methyl-6^7,6^8-dihydro-5-aza-6(4,8)-pyrido[2,3-d]pyrimidina-1(4,1)-piperidina-3(1,3)-benzenacyclotridecaphan-6^7-one]
100 to 5000 nM		Cc1nc2c3cc(C4(C#N)CC4)c(=O)n(c3n1)CCCCCCCCCC(C)(O)C(F)(F)c1cccc(c1)[C@@H](C)N2 (stereo partly drawn) [Compound 115, 1-((3R)-5,5-difluoro-6-hydroxy-1^2,3,6-trimethyl-1^7-oxo-1^7,1^8-dihydro-2-aza-1(4,8)-pyrido[2,3-d]pyrimidina-4(1,3)-benzenacyclopentadecaphane-1^6-yl)cyclopropane-1-carbonitrile]
100 to 5000 nM		Cc1nc2c3cc(C4(C#N)CC4)c(=O)n(c3n1)CCCCCCCCCOCC(F)(F)c1cccc(c1F)[C@@H](C)N2 [Compound 133, 1-((3R)-4^2,5,5-trifluoro-1^2,3-dimethyl-1^7-oxo-1^7,1^8-dihydro-7-oxa-2-aza-1(4,8)-pyrido[2,3-d]pyrimidina-4(1,3)-benzenacyclohexadecaphane-1^6-yl)cyclopropane-1-carbonitrile]
100 to 5000 nM		Cc1nc2c3cc(C4(C#N)CC4)c(=O)n(c3n1)CCCCCCCC(C)(O)C(F)(F)c1cccc(c1)[C@@H](C)N2 (stereo partly drawn) [Compound 148, 1-((3R)-5,5-difluoro-6-hydroxy-1^2,3,6-trimethyl-1^7-oxo-1^7,1^8-dihydro-2-aza-1(4,8)-pyrido[2,3-d]pyrimidina-4(1,3)-benzenacyclotridecaphane-1^6-yl)cyclopropane-1-carbonitrile]

— patent publication US20230339952A1, “MACROCYCLIC HETEROCYCLES AND USES THEREOF” (Kumquat Biosciences Inc., priority 2022, published 2023)
